In US5607937A, “Piperazides of substituted phenylalanine derivatives as thrombin inhibitors” (priority 1993, dated 1997):
pKi: −log10 of the molar value. Read-outs that look alike come from different tables or passages of the source.

Tests used:
plasma kallikrein = plasma kallikrein (Homo sapiens, UniProt P03952); test: inhibition of plasma kallikrein, dissociation constant Ki; settings: Table 1
factor Xa = factor Xa (Bos taurus, UniProt P00743); test: inhibition of factor Xa, dissociation constant Ki; assay type: biochemical; settings: Table 1
Method: (§1) The biological activity of the compounds of the present invention was determined in vitro as well as in vivo.

glandular kallikrein = glandular kallikrein (Sus scrofa, UniProt P00752); test: inhibition of glandular kallikrein, dissociation constant Ki
trypsin = biological target: T1, trypsin (Bos taurus, UniProt P00760); test: inhibition of trypsin, dissociation constant Ki; assay type: biochemical; set-up: thrombin and the related enzymes trypsin, plasmin, factor Xa, factor XIIa; settings: Table 1; read-out: Ki, Trypsin
T1 sequence (P00760 24-246): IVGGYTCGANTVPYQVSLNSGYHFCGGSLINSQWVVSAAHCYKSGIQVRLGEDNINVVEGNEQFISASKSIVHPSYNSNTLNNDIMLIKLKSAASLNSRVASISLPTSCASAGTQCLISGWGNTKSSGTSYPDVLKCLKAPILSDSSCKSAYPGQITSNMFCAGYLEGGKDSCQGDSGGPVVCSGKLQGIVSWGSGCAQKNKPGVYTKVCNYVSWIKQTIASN
Method: as §1

plasmin = plasmin (Homo sapiens, UniProt P00747); test: inhibition of plasmin, dissociation constant Ki; settings: read-out: Ki, Plasmin; Table 1
factor XIIa = biological target: T2, factor XIIa (Homo sapiens, UniProt P00748); test: inhibition of factor XIIa, dissociation constant Ki; settings: Table 1
T2 sequence (P00748 373-615 limits assumed): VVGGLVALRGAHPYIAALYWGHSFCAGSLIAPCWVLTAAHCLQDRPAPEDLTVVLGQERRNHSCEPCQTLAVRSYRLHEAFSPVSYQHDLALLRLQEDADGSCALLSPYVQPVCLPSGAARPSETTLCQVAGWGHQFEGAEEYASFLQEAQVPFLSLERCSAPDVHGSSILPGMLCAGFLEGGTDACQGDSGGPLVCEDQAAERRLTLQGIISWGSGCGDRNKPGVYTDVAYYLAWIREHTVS

[1] = system: coagulation in human plasma; test: activated partial thromboplastin time (aPTT) in human plasma
tPA = tPA (Homo sapiens, UniProt P00750); test: inhibition of tPA, dissociation constant Ki
thrombin [2] = biological target: T3, thrombin (Bos taurus, UniProt P00735)
[3] = system: coagulation in human plasma; test: prothrombin time (PT, Quick value) in human plasma
[4] = system: coagulation in human plasma; test: thrombin time (TT) in human plasma
[5] = plasma concentration in rats after oral administration; assay type: in vivo; settings: rat, oral
[6] = plasma concentration in rats after intravenous administration; assay type: in vivo; settings: rat
[7] = plasma concentration in rats after rectal administration; assay type: in vivo; settings: plasma, rat, rectal 20 mg/kg
[8] = system: coagulation in rat plasma; test: aPTT in rat plasma after rectal application; assay type: in vivo; settings: rectal 5 mg/kg
Method: (§2) After rectal administration of the compounds to be tested, the anticoagulant effect was determined in the plasma of experimental animals.

thrombin [9] = biological target: T3, thrombin; test: biochemical
[10] = concentration in rat plasma in the anticoagulant study after rectal application; assay type: in vivo; settings: rectal 5 mg/kg
in vivo = settings: plasma, rat, intraduodenal 100 mg/kg
[11] = system: coagulation in rat plasma; test: thrombin time in rat plasma after rectal application; assay type: in vivo; settings: rectal 5 mg/kg
Method: as §2

[12] = read-out: Ki, Gland. kallikr., Table 1
[13] = read-out: Ki, Thrombin, Table 1
[14] = read-out: Thrombin inhibition Ki, Table 7

tPA, sequence (P00750 36-562): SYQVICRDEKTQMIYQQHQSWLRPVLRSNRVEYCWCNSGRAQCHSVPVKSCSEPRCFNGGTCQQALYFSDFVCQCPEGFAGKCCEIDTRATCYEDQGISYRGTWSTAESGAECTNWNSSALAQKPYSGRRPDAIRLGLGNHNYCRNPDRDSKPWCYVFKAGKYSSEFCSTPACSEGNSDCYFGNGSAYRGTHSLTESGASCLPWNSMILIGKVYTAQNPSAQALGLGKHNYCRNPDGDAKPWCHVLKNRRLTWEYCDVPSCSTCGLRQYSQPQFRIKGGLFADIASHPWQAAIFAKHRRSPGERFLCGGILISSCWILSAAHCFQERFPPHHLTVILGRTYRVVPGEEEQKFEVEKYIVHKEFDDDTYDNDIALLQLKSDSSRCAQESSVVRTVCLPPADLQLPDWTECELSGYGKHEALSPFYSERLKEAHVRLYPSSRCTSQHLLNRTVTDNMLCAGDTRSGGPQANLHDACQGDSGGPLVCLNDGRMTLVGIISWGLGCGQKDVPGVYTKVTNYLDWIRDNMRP
factor Xa, sequence (P00743 234-492 limits assumed): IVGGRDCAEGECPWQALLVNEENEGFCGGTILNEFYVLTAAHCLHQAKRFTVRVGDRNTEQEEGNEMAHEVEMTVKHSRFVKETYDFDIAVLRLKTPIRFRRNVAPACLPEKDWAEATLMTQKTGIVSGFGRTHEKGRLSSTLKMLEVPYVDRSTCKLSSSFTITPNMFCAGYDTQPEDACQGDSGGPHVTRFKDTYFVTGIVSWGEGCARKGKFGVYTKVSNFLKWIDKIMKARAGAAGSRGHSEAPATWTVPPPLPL
factor Xa, sequence (P00743 41-180 partner limits assumed): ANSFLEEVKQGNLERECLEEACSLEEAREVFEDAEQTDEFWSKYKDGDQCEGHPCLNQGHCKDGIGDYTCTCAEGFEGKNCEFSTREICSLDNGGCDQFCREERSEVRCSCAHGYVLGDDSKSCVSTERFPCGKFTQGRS
plasma kallikrein, sequence (P03952 391-638 limits assumed, species assumed): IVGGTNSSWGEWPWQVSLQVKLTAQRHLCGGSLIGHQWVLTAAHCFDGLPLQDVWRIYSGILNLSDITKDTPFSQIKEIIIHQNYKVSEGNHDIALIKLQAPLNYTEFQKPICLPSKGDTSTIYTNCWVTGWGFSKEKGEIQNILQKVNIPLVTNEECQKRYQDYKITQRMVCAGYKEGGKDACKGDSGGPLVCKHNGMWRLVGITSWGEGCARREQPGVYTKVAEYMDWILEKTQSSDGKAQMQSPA
plasma kallikrein, sequence (P03952 20-390 partner limits assumed, species assumed): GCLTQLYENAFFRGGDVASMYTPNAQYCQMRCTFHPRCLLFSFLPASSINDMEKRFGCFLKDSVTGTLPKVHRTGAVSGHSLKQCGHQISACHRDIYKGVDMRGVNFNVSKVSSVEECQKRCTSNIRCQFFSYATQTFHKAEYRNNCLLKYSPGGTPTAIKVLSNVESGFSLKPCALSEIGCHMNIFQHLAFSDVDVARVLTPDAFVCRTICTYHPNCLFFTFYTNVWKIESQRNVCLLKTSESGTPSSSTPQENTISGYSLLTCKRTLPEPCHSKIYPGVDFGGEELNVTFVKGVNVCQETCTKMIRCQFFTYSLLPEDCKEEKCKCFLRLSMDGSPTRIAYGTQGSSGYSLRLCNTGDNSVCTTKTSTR
glandular kallikrein, sequence (P00752 8-246): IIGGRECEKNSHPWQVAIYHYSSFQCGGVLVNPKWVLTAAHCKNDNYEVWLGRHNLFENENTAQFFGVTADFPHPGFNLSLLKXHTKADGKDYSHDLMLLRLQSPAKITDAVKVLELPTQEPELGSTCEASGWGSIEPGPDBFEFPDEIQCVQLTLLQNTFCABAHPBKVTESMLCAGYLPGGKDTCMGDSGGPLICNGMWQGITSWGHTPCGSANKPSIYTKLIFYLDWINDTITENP
plasmin, sequence (P00747 581-810 limits assumed): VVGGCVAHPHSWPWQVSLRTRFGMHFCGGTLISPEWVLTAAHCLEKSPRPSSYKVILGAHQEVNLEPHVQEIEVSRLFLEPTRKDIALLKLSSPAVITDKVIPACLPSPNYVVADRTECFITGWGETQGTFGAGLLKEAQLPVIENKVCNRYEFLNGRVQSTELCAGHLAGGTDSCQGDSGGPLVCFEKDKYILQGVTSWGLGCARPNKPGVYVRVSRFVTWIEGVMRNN
plasmin, sequence (P00747 97-580 partner limits assumed): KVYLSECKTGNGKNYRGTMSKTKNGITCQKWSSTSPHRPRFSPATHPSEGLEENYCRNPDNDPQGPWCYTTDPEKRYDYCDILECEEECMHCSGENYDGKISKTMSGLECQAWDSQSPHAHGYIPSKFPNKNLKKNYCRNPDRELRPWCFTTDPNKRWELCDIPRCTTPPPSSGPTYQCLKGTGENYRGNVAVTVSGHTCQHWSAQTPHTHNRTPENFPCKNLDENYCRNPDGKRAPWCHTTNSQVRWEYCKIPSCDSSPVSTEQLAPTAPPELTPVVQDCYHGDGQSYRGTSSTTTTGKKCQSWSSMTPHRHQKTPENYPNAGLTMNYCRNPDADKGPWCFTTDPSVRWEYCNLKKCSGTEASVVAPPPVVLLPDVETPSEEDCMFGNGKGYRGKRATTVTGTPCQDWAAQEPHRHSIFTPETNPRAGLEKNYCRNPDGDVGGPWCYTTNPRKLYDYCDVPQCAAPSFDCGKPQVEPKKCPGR

Compound: CC1(C)C2CCC1(CS(=O)(=O)N[C@@H](Cc1cccc(C(=N)N)c1)C(=O)N1CCN(S(C)(=O)=O)CC1)C(=O)C2 (single isomer, unassigned) [Compound 7]
- pKi (plasma kallikrein; read-out: Ki, Plasma kallikr.): 4.60
- pKi (factor Xa): 5.96
- pKi (glandular kallikrein; [12]): < 3.00
- pKi (trypsin): 6.66
- pKi (plasmin): 4.85
- pKi (factor XIIa; read-out: Ki, Factor XIIa): 4.21
- Concentr. to double the aPTT [1]: 0.55 µmol/L
- concentration to double the aPTT [1]: ≤ 1 μmol/1
- pKi (tPA; read-out: Ki, tPA, Table 1): 4.70
- pKi (thrombin [2]; [13]): 7.92
- pKi (thrombin [2]; [14]): 7.92
- Concentr. to double the Prothrombin time [3]: 1.0 µmol/L
- concentration to double the PT [3]: ≤ 1 μmol/1
- Concentr. to double the Thrombin time [4]: 0.075 µmol/L
- concentration to double the TT [4]: less than 10^-7 mol/1

Compound: CN(C)C(=O)N1CCN(C(=O)[C@H](Cc2cccc(C(=N)N)c2)NS(=O)(=O)c2ccc3ccccc3c2)CC1 [Compound 6]
- pKi (plasma kallikrein; Ki, Plasma kallikr.): 5.14
- pKi (factor Xa): 4.82
- resorption in words [5]: only slightly resorbed
- pKi (glandular kallikrein): < 3.00
- concentration at 5 min ([6]; plasma, iv, i.v. 1 mg/kg, 5 min): 823 ng/mL
- concentration at 0.25 h ([6]; plasma, iv, i.v. 1 mg/kg, 15 min): 289 ng/mL
- concentration at 0.5 h ([6]; plasma, iv, i.v. 1 mg/kg, 30 min): 194 ng/mL
- concentration at 1 h ([6]; plasma, iv, i.v. 1 mg/kg, 60 min): 141 ng/mL
- concentration at 2 h ([6]; plasma, iv, i.v. 1 mg/kg, 120 min): 86 ng/mL
- concentration at 3 h ([6]; plasma, iv, i.v. 1 mg/kg, 180 min): 70 ng/mL
- elimination in words ([6]; i.v.): eliminated at comparable rate
- pKi (trypsin): 7.01
- concentration at 0.5 h ([7]; 30 min): 1180 ng/mL
- concentration at 1 h ([7]; 60 min): 449 ng/mL
- concentration at 2 h ([7]; 120 min): 850 ng/mL
- concentration at 3 h ([7]; 180 min): 272 ng/mL
- concentration at 4 h ([7]; 240 min): 46 ng/mL
- Clotting time, aPTT ([8]; 0 min): 22.3 s
- Clotting time, aPTT ([8]; 30 min): 34.5 s
- Clotting time, aPTT ([8]; 60 min): 31.5 s
- Clotting time, aPTT ([8]; 120 min): 28.4 s
- Clotting time, aPTT ([8]; 180 min): 26 s
- pKi (thrombin [9]): 8.40
- concentration at 0.5 h ([10]; plasma, 30 min): 648 ng/mL
- concentration at 1 h ([10]; plasma, 60 min): 362 ng/mL
- concentration at 2 h ([10]; plasma, 120 min): 157 ng/mL
- concentration at 3 h ([10]; plasma, 180 min): 83 ng/mL
- Concentration in plasma ([10]; 0 min): 0 ng/mL
- pKi (factor XIIa; Ki, Factor XIIa): 4.29
- Concentr. to double the aPTT [1]: 0.3 µmol/L
- concentration to double the aPTT [1]: ≤ 1 μmol/1
- concentration at 0.5 h (in vivo; 30 min): 20500 ng/mL
- concentration at 1 h (in vivo; 60 min): 6500 ng/mL
- concentration at 2 h (in vivo; 120 min): 3280 ng/mL
- concentration at 3 h (in vivo; 180 min): 2060 ng/mL
- concentration at 4 h (in vivo; 240 min): 1500 ng/mL
- concentration at 5 h (in vivo; 300 min): 1200 ng/mL
- concentration at 6 h (in vivo; 360 min): 1440 ng/mL
- Clotting time, Thrombin time ([11]; 0 min): 55.3 s
- Clotting time, Thrombin time ([11]; 30 min): > 300 s
- Clotting time, Thrombin time ([11]; 60 min): > 300 s
- Clotting time, Thrombin time ([11]; 120 min): > 300 s
- Clotting time, Thrombin time ([11]; 180 min): 213 s
- pKi (tPA): < 3.00
- Concentr. to double the Prothrombin time [3]: 0.65 µmol/L
- concentration to double the PT [3]: ≤ 1 μmol/1
- Concentr. to double the Thrombin time [4]: 0.042 µmol/L
- concentration to double the TT [4]: less than 10^-7 mol/1

Compound: CC1(C)C2CCC1(CS(=O)(=O)N[C@@H](Cc1cccc(C(=N)N)c1)C(=O)N1CCN(S(C)(=O)=O)CC1)C(=O)C2 (single isomer, unassigned) [Compound 8]
- pKi (plasma kallikrein; read-out: Ki, Plasma kallikr.): 3.89
- pKi (factor Xa): 5.17
- pKi (glandular kallikrein; [12]): < 3.00
- pKi (trypsin): 6.36
- pKi (plasmin): 4.54
- pKi (factor XIIa; read-out: Ki, Factor XIIa): 4.15
- Concentr. to double the aPTT [1]: 1.2 µmol/L
- pKi (tPA; read-out: Ki, tPA, Table 1): 4.09
- pKi (thrombin [2]; [13]): 7.51
- pKi (thrombin [2]; [14]): 7.51
- Concentr. to double the Prothrombin time [3]: 2.0 µmol/L
- Concentr. to double the Thrombin time [4]: 0.13 µmol/L
